Measured values reported in US20250170141A1, “MRGPRX2 MODULATORS AND RELATED METHODS OF TREATMENT” (Escient Pharmaceuticals, Inc., priority 2023, published 2025).
In brackets after ≈: the same amount, converted by molar mass. Read-outs that look alike come from different tables or passages of the source.

Assays:
[1] = target: T1, human MRGPRX2 (Homo sapiens, UniProt Q96LB1); test: MRGPRX2 activity: IP-One Gq HTRF assay in CHO cells, antagonism versus 0.3 uM Cortistatin-14; type: cell-based; conditions: versus 0.3 uM Cortistatin-14 agonist, CHO cells expressing human MRGPRX2, read-out: MRGPRX2 Antagonist Activity
T1 construct: expressed in transfected cells; host or cells: CHO cells, stably transfected (G418 and Hygromycin B selection)
T1 sequence (Q96LB1 1-330): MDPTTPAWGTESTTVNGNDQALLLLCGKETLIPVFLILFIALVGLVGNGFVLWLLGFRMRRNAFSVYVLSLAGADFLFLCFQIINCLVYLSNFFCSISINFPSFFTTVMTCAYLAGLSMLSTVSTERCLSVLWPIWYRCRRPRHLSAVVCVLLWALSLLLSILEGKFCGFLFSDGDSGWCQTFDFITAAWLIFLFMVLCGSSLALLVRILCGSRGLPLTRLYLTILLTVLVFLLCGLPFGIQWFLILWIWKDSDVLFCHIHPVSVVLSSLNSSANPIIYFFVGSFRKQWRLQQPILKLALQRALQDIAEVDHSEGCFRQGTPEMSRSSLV
Procedure, shortened: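 Antagonist IC50 was derived from the HTRF IP-1 signal after co-addition of compounds (10 points, top 30 uM, 3-fold steps) and 0.3 μM Cortistatin-14 agonist to human MRGPRX2-expressing CHO cells. Assay buffer contained 50 mM LiCl, pH 8; plates sat 1 h at 37 °C, then 1 h at room temperature.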

[2] = system: Human LAD2 cells; test: Mast Cell Beta-Hexosaminidase Release Assay (LAD2 cells, 500 nM Cortistatin-14); type: cell-based; conditions: read-out: MRGPRX2 Antagonist Activity
Experimental: Human LAD2 cells (NIH) were maintained in an incubator at 37° C. with 5% CO2 and cultured in StemPro-34 serum-free media (Gibco 10639011) supplemented with 2 mM L-glutamine, 100 U/ml penicillin, […] streptomycin and 100 ng/ml SCF (Invitrogen PEP0860), at a concentration of 2-5×10^5 cells/mL, with hemidepletion every 1-2 weeks.
Cells were transferred to SCF-Free medium at 2.5×10^5 cells/mL and kept in an incubator overnight. On the day of the assay, cells were washed twice in Assay Buffer (final concentrations 10 mM HEPES, 137 mM NaCl, 5.6 mM D-glucose, 2.7 mM KCl, 1 mM MgCl, 1.8 mM CalCl2, 0.4 mM Na2HPO4·7H2O, 0.04% BSA, pH=7.4) and plated in a 96-well v-bottom plate at 20,000 cells per well in 80 μL Assay Buffer. Antagonist compounds solubilized at 10 mM in DMSO were diluted in Assay Buffer to 10× final desired concentrations as a 10-point curve (10 μM final top concentration with 1:3 serial dilutions) and 10 μL added per well. Plates were then incubated for 1 hour at 37° C. Agonists were diluted in Assay Buffer to 10× desired concentrations and 10 μL of the appropriate agonist added to each well. The final concentration of Cortistatin-14 (Tocris 3374) used in antagonist assays was 500 nM. Final concentrations of DMSO were kept consistent across the plate. Plates were then incubated in a warm air oven for 30 minutes at 37° C., followed by centrifugation at 4° C. for 5 minutes at 450×g. 50 μL supernatant from each well was then transferred to a 96-well flat bottom plate containing 100 μL substrate solution per well (3.5 mg/mL p-Nitrophenyl-N-acetyl-o-D-glucosaminide (Sigma 487052) in Citrate Buffer containing a final concentration of 40 mM Citric Acid, 20 mM Na2HPO4·7H2O, pH=4.5). To the cell pellets left in the remaining assay buffer, 150 μL 0.1% Triton-X-100 was then added to each well, resuspended by pipetting up and down, and 50 μL cell lysates transferred to a second 96-well flat bottom plate containing 100 μL substrate solution per well. Plates containing transferred supernatant and cell lysates were then incubated in a warm air oven for 90 minutes at 37° C. After incubation, 50 μL of 400 mM Glycine buffer (pH 10.7) was added into each well and the plate was read on a Molecular Devices SpectraMax iD5 plate reader (absorbance at 405 nm with reference filter at 620 nm). After background subtraction, the percentage degranulation (percent beta-hexosaminidase release) was calculated as 100×(supernatant values)/(supernatant+lysate values), followed by analysis using GraphPad Prism software to calculate an IC50 value for each compound.
The activity ranges are denoted as follows: “+++++” denotes antagonist activity <100 nM; “++++” denotes antagonist activity between 100 and 500 nM; “+++” denotes activity between 501 and 1000 nM; “++” denotes activity between 1001 and 2500 nM; and “+” denotes activity >2500 nM.

[3] = Mouse Pharmacokinetic Studies (50 mg/kg oral gavage, plasma LC-MS/MS); type: in vivo; conditions: male C57BL/6 mice, non-fasted
Experimental: Compounds were formulated in 5% DMSO, 5% Solutol, and 90% PBS without Ca and Mg (pH 7.4) at a concentration of […]. Male C57BL/6 mice (n=6/compound) were administered a 50 mg/kg dose of each compound by oral gavage under a non-fasted condition. Blood samples were collected via the Submandibular vein onto K2-EDTA at 0.5, 1, 2, 4, 8 and 24 hours after dosing, and plasma was prepared and stored at −80° C. until analysis. Plasma sample preparation for analysis was done by protein precipitation using acetonitrile (including Verapamil as an internal standard) followed by centrifugation. Compound concentrations were determined in extracted plasma using LC-MS/MS relative to a 12-point standard curve covering the 1 to 4000 nM range. Non-compartmental analysis using Phoenix WinNonlin was used to estimate pharmacokinetic parameters including area under the curve, clearance, and half-life. The administered dose was confirmed by analysis of residual dosing material by UPLC-UV relative to a single point calibration sample.

[4] = Solubility Studies in FaSSIF, FeSSIF, FaSSGF (24 hours, room temperature, UPLC-UV); type: physicochemical; conditions: kinetic from dmso stock, 24 hours at room temperature
Experimental: Media according to Biorelevant Media protocols was prepared. 10 μL of 10 mM in DMSO stock solutions of test compounds was added to 96-well deep plate. 490 μL of FaSSIF, FeSSIF, or FaSSGF was then added into appropriate wells of 96-well deep plate. The plate was vortexed for 2 minutes then placed on a plate shaker for 24 hours at room temperature. The plate was centrifuged for 20 minutes, then supernatant was collected and filtered with […] syringe filter into UPLC vials for injection into UPLC-UV system. Concentration was calculated with a 3-point standard curve.

[5] = Mast Cell Beta-Hexosaminidase Release Assay
[6] = fassgf or other biorelevant, solubility in FaSSGF, read-out: FaSSGF
[7] = solubility in FaSSIF, read-out: FaSSIF
[8] = solubility in FeSSIF, read-out: FeSSIF
[9] = Homo sapiens, LAD2, Mast Cell Beta-Hexosaminidase Release Assay
[10] = male, C57BL/6, mouse, po, 50 mg/kg

Compound `CC(c1ccccc1F)c1c(F)ccc2c1NC(NCc1ncccc1F)=NS2(=O)=O` (single isomer, unassigned) [Compound 10-1B] has an IC50 [1] of less than 100 nM, an IC50 [2, 5] of less than 100 nM and a Cmax ([3]; 50 mg/kg) of 14 µM. For the same compound, the T1/2 ([3]; 50 mg/kg) was 1.8 h, the TBC ([3]; 50 mg/kg) was 9 mL/min/kg and the solubility kinetic at 24 h [4, 6] was 61 µM (≈ 27.2 µg/mL). For the same compound, the solubility kinetic at 24 h [4, 7] was 133 µM (≈ 59.4 µg/mL) and the solubility kinetic at 24 h [4, 8] was 200 µM (≈ 89.3 µg/mL).
`O=S1(=O)N=C(NCc2ncccc2F)Nc2c1ccc(F)c2Oc1ccccc1Cl` [Compound 2-1, 5-(2-chlorophenoxy)-6-fluoro-3-(((3-fluoropyridin-2-yl)methyl)amino)-4H-benzo[e][1,2,4]thiadiazine 1,1-dioxide] gave an IC50 [1] of less than 100 nM, an IC50 [2, 9] of 100 to 500 nM and a TBC [3] of 8.8 mL/min/kg. The Cmax [3, 10] was 11 µM, the half-life [3, 10] was 2.8 h and the solubility kinetic at 24 h [4, 6] was less than 12.5 µM. It also gave a solubility kinetic at 24 h [4, 7] of less than 12.5 µM and a solubility kinetic at 24 h [4, 8] of less than 12.5 µM.
In the case of `CC(c1ccccc1F)c1c(F)ccc2c1NC(NCc1ncccc1F)=NS2(=O)=O` (stereo not shown) [Compound 9-1, 6-fluoro-5-(1-(2-fluorophenyl)ethyl)-3-(((3-fluoropyridin-2-yl)methyl)amino)-4H-benzo[e][1,2,4]thiadiazine 1,1-dioxide], the IC50 [1] is reported as less than 100 nM, the IC50 [2, 9] is reported as less than 100 nM and the TBC [3] is reported as 13 mL/min/kg. The Cmax [3, 10] was 8.7 µM, the half-life [3, 10] was 1.8 h and the solubility kinetic at 24 h [4, 6] was 19 µM (≈ 8.48 µg/mL). The solubility kinetic at 24 h [4, 7] was 114 µM (≈ 50.9 µg/mL) and the solubility kinetic at 24 h [4, 8] was 74 µM (≈ 33 µg/mL).
Compound `CC(c1ccccc1F)c1c(F)ccc2c1NC(NCc1cccc(F)c1)=NS2(=O)=O` (single isomer, unassigned) [Compound 10-5B] has an IC50 [1] of less than 100 nM, an IC50 [2, 5] of less than 100 nM and a Cmax ([3]; 50 mg/kg) of 7.1 µM. For the same compound, the T1/2 ([3]; 50 mg/kg) was 2.5 h, the TBC ([3]; 50 mg/kg) was 12 mL/min/kg and the solubility kinetic at 24 h [4, 6] was less than 3.1 µM. It also gave a solubility kinetic at 24 h [4, 7] of 158 µM (≈ 70.4 µg/mL) and a solubility kinetic at 24 h [4, 8] of 136 µM (≈ 60.6 µg/mL).
Work on `C[C@@H](c1ccccc1F)c1c(F)c(F)cc2c1NC(NCc1ncccc1F)=NS2(=O)=O` [Compound 10-6A, (S)-6,7-difluoro-5-(1-(2-fluorophenyl)ethyl)-3-(((3-fluoropyridin-2-yl)methyl)amino)-4H-benzo[e][1,2,4]thiadiazine 1,1-dioxide] yielded an IC50 [1] of less than 100 nM, an IC50 [2, 9] of less than 100 nM and a TBC [3] of 11 mL/min/kg. The Cmax [3, 10] was 11 µM, the half-life [3, 10] was 2.1 h and the solubility kinetic at 24 h [4, 6] was 27 µM (≈ 12.5 µg/mL). For the same compound, the solubility kinetic at 24 h [4, 7] was 30 µM (≈ 13.9 µg/mL) and the solubility kinetic at 24 h [4, 8] was 178 µM (≈ 82.7 µg/mL).
`CC(c1ccc(F)cc1)c1c(F)ccc2c1NC(NCc1ncccc1F)=NS2(=O)=O` (single isomer, unassigned) [Compound 10-4B] showed an IC50 [1] of less than 100 nM, an IC50 [2, 5] of less than 100 nM and a Cmax ([3]; 50 mg/kg) of 10 µM. It also gave a T1/2 ([3]; 50 mg/kg) of 2.2 h, a TBC ([3]; 50 mg/kg) of 12 mL/min/kg and a solubility kinetic at 24 h [4, 6] of 3 µM (≈ 1.34 µg/mL). It also gave a solubility kinetic at 24 h [4, 7] of 23 µM (≈ 10.3 µg/mL) and a solubility kinetic at 24 h [4, 8] of 37 µM (≈ 16.5 µg/mL).
Compound `O=S1(=O)N=C(NCc2ncccc2F)Nc2c(Oc3ccccc3Cl)cc(F)cc21` [Compound 1-264, 5-(2-chlorophenoxy)-7-fluoro-3-(((3-fluoropyridin-2-yl)methyl)amino)-4H-benzo[e][1,2,4]thiadiazine 1,1-dioxide] has an IC50 [1] of less than 100 nM, an IC50 [2, 9] of less than 100 nM and a TBC [3] of 32 mL/min/kg. The Cmax [3, 10] was 1.1 µM, the half-life [3, 10] was 3.8 h and the solubility kinetic at 24 h [4, 6] was less than 12.5 µM. For the same compound, the solubility kinetic at 24 h [4, 7] was less than 12.5 µM and the solubility kinetic at 24 h [4, 8] was less than 12.5 µM.
Work on `CC(c1ccccc1F)c1c(F)ccc2c1NC(NCc1cccc(F)n1)=NS2(=O)=O` (single isomer, unassigned) [Compound 10-2B] yielded an IC50 [1] of less than 100 nM, an IC50 [2, 5] of less than 100 nM and a TBC ([3]; 50 mg/kg) of 27 mL/min/kg. It also gave a Cmax [3, 10] of 4.4 µM, a half-life [3, 10] of 2.3 h and a solubility kinetic at 24 h [4, 6] of 11 µM (≈ 4.91 µg/mL). It also gave a solubility kinetic at 24 h [4, 7] of 162 µM (≈ 72.3 µg/mL) and a solubility kinetic at 24 h [4, 8] of 186 µM (≈ 83 µg/mL).
